Columns and labels:
[1] = molecular target: T1, 5-HT2C receptor (Homo sapiens, UniProt P28335); experiment: radioligand binding assay for 5-HT2C receptor ([3H]mesulergine); details: competitive binding
T1 construct: expressed in transfected cells; host or cells: CHO-K1 (or COS-7); alternatively choroid plexus tissue
T1 sequence (P28335 33-458): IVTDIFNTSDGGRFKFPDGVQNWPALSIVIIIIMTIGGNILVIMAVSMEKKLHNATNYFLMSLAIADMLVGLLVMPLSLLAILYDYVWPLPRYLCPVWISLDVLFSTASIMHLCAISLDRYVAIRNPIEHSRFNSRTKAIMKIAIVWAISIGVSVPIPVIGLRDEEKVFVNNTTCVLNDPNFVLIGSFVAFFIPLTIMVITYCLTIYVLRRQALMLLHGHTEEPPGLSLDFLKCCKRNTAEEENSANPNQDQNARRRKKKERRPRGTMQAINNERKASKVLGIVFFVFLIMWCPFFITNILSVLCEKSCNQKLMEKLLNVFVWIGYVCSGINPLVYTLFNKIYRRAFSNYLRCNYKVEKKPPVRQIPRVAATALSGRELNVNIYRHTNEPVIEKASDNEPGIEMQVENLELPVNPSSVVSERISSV
Experimental: (§1) The effect of the compounds of the present invention on the neurochemical steady state was determined by in vitro investigations such as a radionuclide-marked radioligand binding assay for 5-HT2A (Bonhaus D. W. Br. J. Pharmacol. 1995, 115:622; Saucier C. J. Neurochem. 1997, 68:1998) and 5-HT2C receptors (Wolf W. A. J. Neurochem. 1997, 69:1449), in vitro binding assay for σ1 receptor (Thomson W. and Donn R. Arthritis Res. 2002, 4: 302-306) and by in vivo investigations in a tail suspension test (Vogel H. G. and Vogel W. H. Drug Discovery and Evaluation Pharmacological Assays, Springer 1997, 304), in amphethamine-induced hyperlocomotion in mice (Millan M. J. et al, 1998 J. Pharmacol. Exp. Ther. 287: 167-186), in a forced swim test in mice (Porsolt R. D. et al. Arch. Int. Pharmacodyn. 1977, 229:327-336), in meta-chlorophenyl piperazine (m-CPP) test on rats (Drug Dev. Res. 1989, 18:119-144), and in apomorphine, tryptamine, norepinephrine (ATN) test in rats (Arch. Int. […]
(§2) A small concentration of a radioligand having a great affinity for binding to a receptor was incubated with a tissue sample enriched with a certain receptor (1-5 mg of tissue) in a buffered medium (0.2-5 mL). […] When a binding balance was achieved, the receptors to which the radioligand was bound were separated from those to which said ligand was not bound, and the radioactivity of the receptor/radioligand complex was measured. […]

[2] = molecular target: T2, 5-HT2A receptor (Homo sapiens, UniProt P28223); experiment: radioligand binding assay for 5-HT2A receptor ([3H]-ketanserin); details: competitive binding
T2 construct: expressed in transfected cells; host or cells: CHO-K1 (or COS-7); alternatively human cortex tissue
T2 sequence (P28223 whole entry): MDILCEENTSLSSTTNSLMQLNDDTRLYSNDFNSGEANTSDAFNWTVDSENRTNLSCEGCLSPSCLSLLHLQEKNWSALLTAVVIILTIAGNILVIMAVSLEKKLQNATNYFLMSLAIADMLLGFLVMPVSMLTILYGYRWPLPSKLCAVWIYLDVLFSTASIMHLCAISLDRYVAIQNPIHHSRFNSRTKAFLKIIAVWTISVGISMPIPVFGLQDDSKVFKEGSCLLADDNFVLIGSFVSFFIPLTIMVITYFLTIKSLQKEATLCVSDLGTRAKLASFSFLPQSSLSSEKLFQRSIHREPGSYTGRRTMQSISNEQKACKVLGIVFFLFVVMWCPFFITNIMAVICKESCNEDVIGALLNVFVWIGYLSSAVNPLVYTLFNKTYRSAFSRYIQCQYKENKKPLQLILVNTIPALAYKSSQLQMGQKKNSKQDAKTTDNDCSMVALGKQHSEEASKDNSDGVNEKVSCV
Experimental: as §1, §2

SMILES: CN(C)CCOCc1cc2c([nH]1)-c1ccccc1Sc1ccccc1-2 [dimethyl-[2-(1H-8-thia-1-aza-dibenzo[e,h]azulen-2-ylmethoxy)-ethyl]-amine]
- IC50 ([1]; choroid plexus or recombinant 5-HT2C in CHO-K1, read-out: binding affinity to 5-HT2C serotonin receptor expressed as IC50 value): < 200 nM
- Ki ([1]; choroid plexus or recombinant 5-HT2C in CHO-K1, read-out: binding affinity to 5-HT2C serotonin receptor, Ki value): < 100 nM
- IC50 ([2]; human cortex or recombinant 5-HT2A in CHO-K1, read-out: binding affinity to 5-HT2A serotonin receptor expressed as IC50 value): < 200 nM
- Ki ([2]; human cortex or recombinant 5-HT2A in CHO-K1, read-out: binding affinity to 5-HT2A serotonin receptor, Ki value): < 100 nM

Source: patent US20070111968A1, “1-Aza-dibenzo[e,h]azulenes for the treatment of central nervous system diseases and disorders” (GLAXOSMITHKLINE ISTRAZIVACKI CENTAR ZAGREB D.O.O., priority 2003, published 2007)
